Laboratory results as given in US20120156314A1, “11 beta, 13-DIHYDROHELENALIN DERIVATIVES AND USES THEREOF AS BOMBESIN RECEPTOR SUBTYPE 3 AGNOISTS” (VIOGENE-BIOTEK CORPORATION, priority 2010, published 2012).
Read-outs that look alike come from different tables or passages of the source.

Key:
BRS3 = BRS3 (Homo sapiens, UniProt P32247); test: cell-based
Description: Formation of the arrestin-receptor complex occurred as the agonist bind to the receptor and it is able to trace the translocation of this complex from plasma membrane to cytoplasm in a form of endocytoplamic vesicles. Monitoring the distribution and translocation of GFP-labeled arrestin in cell expressing BRS3, we are able to measure the ability of the crude extracts to activate BRS3.

human BRS3 = target: T1, human BRS3 (Homo sapiens, UniProt P32247); test: Cytosolic Ca++ mobilization assay in U2OS cells expressing BRS3; format: cell-based; conditions: for magnitude of released calcium and time to reach the peak of the transient: dose response
T1 construct: expressed in transfected cells; host or cells: U2OS
T1 sequence (P32247 1-399): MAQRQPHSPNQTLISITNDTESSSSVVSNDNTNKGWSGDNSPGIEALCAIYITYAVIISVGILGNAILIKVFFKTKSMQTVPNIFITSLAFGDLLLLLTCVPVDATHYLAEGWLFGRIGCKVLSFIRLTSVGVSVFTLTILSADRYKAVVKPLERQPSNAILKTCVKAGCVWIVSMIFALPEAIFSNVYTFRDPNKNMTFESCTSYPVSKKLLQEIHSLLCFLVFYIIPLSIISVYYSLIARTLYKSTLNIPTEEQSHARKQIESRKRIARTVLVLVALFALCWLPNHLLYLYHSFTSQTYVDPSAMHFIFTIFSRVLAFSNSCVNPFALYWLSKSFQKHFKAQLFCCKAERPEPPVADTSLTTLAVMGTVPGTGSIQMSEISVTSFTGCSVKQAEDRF
Protocol: Fluorescence was measured at dual excitation wavelengths of 340 nm and 380 nm, using an emission wavelength of 510 nm. Autofluorescence was corrected for by running a sample of unlabeled cells in identical experimental conditions.

[1] = test system: U2OS cells that does not express BRS3
Protocol: After two washes with assay buffer, 2 ml of cell suspension were placed in a Delta PTI Scan 1 spectrofluorimeter (Photon Technology International, South Brunswick, N.J.) equipped with a stir bar and water bath (37° C.). Fluorescence was measured at dual excitation wavelengths of 340 nm and 380 nm, using an emission wavelength of 510 nm. Autofluorescence was corrected for by running a sample of unlabeled cells in identical experimental conditions.

GRPR = GRPR (Homo sapiens, UniProt P30550); test: cell-based; conditions: Table 6
Sequence of GRPR (P30550 whole entry, species assumed): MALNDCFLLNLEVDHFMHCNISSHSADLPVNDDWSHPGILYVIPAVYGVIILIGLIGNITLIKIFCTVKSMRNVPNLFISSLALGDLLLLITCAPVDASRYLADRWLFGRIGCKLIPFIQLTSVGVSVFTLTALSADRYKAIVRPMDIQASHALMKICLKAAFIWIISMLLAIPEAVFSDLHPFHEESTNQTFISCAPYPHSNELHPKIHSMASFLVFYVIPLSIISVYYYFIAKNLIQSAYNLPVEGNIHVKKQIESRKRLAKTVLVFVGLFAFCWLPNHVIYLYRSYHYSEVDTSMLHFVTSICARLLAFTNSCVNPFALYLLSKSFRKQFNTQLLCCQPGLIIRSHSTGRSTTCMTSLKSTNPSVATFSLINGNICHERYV

NMBR = NMBR (Homo sapiens, UniProt P28336); test: cell-based; conditions: Table 6
Sequence of NMBR (P28336 whole entry, species assumed): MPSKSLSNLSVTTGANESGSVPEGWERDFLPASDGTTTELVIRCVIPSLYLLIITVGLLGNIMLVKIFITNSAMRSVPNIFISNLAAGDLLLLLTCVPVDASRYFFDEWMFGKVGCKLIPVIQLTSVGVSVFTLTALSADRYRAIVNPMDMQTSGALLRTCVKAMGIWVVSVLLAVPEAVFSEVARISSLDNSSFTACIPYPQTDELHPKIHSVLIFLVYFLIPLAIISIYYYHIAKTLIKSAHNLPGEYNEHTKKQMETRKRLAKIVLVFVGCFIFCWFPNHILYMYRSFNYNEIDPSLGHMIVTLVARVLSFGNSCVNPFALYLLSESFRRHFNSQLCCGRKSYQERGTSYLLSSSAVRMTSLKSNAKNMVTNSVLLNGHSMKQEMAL

[2] = Table 5, U2OS cells expressing human BRS3, read-out: EC50 Ca++

Structure (SMILES)	EC50 (BRS3; EC50 Arrestin, Table 5) [µM]	EC50 (human BRS3) [µM]	EC50 (BRS3; EC50 BRS3, Table 6) [µM]	cytosolic Ca++ release in cells without BRS3 [1]	time of return of cytosolic calcium to basal levels (human BRS3; 6.8 μg/ml) [min]	time to maximal level of cytosolic calcium (human BRS3; 6.8 μg/ml) [s]	magnitude of released calcium and time to reach the peak of the transient (human BRS3)	EC50 (GRPR) [µM]	EC50 (NMBR) [µM]	EC50 (human BRS3; [2]) [µM]	time of return of cytosolic calcium to basal levels (human BRS3; 25 μg/ml) [min]	time to maximal level of cytosolic calcium (human BRS3; 25 μg/ml) [s]
C=C(C)C(=O)O[C@H]1[C@H]2[C@@H](C[C@@H](C)[C@@H]3C=CC(=O)[C@]31C)OC(=O)[C@@H]2C [Compound 1, Arnicolide D]	2.8	10										
CC(C)C(=O)O[C@H]1[C@H]2[C@@H](C[C@@H](C)[C@@H]3C=CC(=O)[C@]31C)OC(=O)[C@@H]2C [Compound 2, Arnicolide C]	2.8	12										
CC=C(C)C(=O)OC1C2C(CC(C)C3C=CC(=O)C31C)OC(=O)C2C (centres unmarked) [Compound 3, Microhelenin C]	2	11										
CCC(C)C(=O)O[C@H]1[C@H]2[C@@H](C[C@@H](C)C3C=CC(=O)[C@]31C)OC(=O)[C@@H]2C (some centres unmarked) [Compound 4, Microhelenin B]	2.35	4.2	3.73	not able to stimulated cytosolic Ca^++ release	1	13	concentration-dependent and saturable	> 861	> 861			
CC(C)CC(=O)O[C@H]1[C@H]2[C@@H](C[C@@H](C)[C@@H]3C=CC(=O)[C@]31C)OC(=O)[C@@H]2C [Compound 5, Arnicolide B]	7.5	20										
CCC(C)C(=O)O[C@H]1[C@@H]2[C@H](C)C(=O)O[C@@H]2C[C@@H](C)C2[C@@H](O)CC(=O)[C@]21C (some centres unmarked) [Compound A, arnifoline]	2.7		2.73				concentration-dependent and saturable	> 1360	> 1360	2.6		
CCC(C)C(=O)O[C@H]1[C@@H]2[C@H](C)C(=O)O[C@@H]2C[C@@H](C)C2[C@@H](C)CC(=O)[C@]21C (stereo partly drawn) [Compound B, 11α-13-dihydroarnifolin B]	14		13.7	not able to stimulated cytosolic Ca^++ release			concentration-dependent and saturable	> 686	> 823	9.6	1	13
